This is an account of results in ChEMBL document CHEMBL1201862, “PubChem BioAssay data set” (2004).

A short description of test [1]: viability loss in THP-1 monocytes – THP-1 cells, cytotoxicity control for Vif-APOBEC3G degradation inhibitor project, dose response (AID 1117359). The class given is functional. The following applies: THP-1.
The next test addresses T1, Estrogen receptor (Homo sapiens, UniProt P03372).
T1 sequence (P03372 whole entry): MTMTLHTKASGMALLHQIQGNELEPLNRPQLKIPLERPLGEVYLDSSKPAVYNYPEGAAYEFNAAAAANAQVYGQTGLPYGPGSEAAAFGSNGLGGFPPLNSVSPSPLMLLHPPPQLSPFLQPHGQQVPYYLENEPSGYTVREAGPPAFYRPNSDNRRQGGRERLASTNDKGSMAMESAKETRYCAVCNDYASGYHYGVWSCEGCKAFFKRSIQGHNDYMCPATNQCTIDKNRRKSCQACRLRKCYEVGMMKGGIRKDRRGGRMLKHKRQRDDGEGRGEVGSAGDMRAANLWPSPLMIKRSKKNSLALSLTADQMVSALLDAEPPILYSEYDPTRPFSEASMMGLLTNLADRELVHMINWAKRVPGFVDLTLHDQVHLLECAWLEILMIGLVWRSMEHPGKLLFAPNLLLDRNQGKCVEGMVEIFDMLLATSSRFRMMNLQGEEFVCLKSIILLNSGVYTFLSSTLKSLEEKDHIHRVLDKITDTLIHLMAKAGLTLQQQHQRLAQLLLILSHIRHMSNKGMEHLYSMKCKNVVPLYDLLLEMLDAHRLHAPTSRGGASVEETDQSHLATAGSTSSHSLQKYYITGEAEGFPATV

Test [2] is described as follows: cells. The class given is functional, cell-based.
The nature of test [3]: cells. The class given is functional, cell-based. The source holds these as a separate data set.
The target of test [4] is T2, Aryl hydrocarbon receptor (Homo sapiens, UniProt P35869).
T2 sequence (P35869 whole entry): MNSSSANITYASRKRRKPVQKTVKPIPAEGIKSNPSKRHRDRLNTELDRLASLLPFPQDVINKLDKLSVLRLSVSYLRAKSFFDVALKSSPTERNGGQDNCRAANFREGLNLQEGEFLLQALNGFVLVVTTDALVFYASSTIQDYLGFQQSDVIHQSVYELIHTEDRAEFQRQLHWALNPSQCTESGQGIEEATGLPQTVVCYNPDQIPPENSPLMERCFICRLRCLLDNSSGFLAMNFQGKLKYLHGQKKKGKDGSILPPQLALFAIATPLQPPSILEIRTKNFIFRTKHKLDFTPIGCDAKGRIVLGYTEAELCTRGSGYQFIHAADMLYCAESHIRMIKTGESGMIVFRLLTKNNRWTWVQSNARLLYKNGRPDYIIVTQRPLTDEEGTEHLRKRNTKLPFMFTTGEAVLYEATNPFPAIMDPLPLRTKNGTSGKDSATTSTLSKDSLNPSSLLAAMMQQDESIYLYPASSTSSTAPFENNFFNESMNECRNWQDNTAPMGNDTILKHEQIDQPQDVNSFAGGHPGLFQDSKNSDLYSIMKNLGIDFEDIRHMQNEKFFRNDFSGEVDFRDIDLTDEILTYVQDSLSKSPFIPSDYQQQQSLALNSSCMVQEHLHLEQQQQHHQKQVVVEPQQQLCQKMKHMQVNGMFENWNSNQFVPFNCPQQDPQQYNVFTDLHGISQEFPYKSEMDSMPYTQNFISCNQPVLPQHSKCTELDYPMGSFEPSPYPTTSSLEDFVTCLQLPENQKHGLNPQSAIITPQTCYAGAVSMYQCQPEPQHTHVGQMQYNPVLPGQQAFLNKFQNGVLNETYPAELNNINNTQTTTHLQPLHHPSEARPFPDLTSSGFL
As to the kind of experiment: Luminescence-based cell-based high throughput dose response assay for activators of the Aryl Hydrocarbon Receptor (AHR). [Related pubchem assays: 2796 (Primary screen (AHR activators in singlicate)), 2845 (Confirmation screen (AHR activators in triplicate)), 434939 (Counterscreen (PXR activators in triplicate)), 2804 (Summary (AHR activators))]. The class given is ADME. For orientation: A counterscreen serves to expose hits that act by an unwanted route or on another target.

For test [5], the target named is G-protein coupled receptor 35 (Homo sapiens, UniProt Q9HC97). As to the kind of experiment: inhibition of zaprinast-stimulated GPR35 beta-arrestin translocation – imaging, U2OS, beta-arrestin-GFP, zaprinast agonist, primary screen (AID 2058).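 Note: antagonist potency meaning inhibition of agonist-induced arrestin redistribution.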 The class given is functional.
G-protein coupled receptor 35, sequence (Q9HC97 whole entry): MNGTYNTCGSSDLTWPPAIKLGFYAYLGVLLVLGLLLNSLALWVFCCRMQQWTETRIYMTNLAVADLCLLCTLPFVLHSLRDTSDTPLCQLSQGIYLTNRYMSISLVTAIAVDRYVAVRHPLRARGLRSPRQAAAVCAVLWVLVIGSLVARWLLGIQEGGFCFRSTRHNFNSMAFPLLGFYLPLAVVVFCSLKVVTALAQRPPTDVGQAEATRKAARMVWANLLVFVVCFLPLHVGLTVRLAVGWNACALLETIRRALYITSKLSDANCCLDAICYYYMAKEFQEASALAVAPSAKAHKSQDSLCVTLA
For another test, the target named is T3, NADPH oxidase 1 (Homo sapiens, UniProt Q9Y5S8).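 Note: Cell-based assay with luminescence read-out, IC50 derived from inhibitor dose-response curves; intracellular ROS from endogenous NOX1 in intact HT29 colon cancer cells; potency of inhibitors that lower the ROS luminescence signal.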
T3 sequence (Q9Y5S8 whole entry): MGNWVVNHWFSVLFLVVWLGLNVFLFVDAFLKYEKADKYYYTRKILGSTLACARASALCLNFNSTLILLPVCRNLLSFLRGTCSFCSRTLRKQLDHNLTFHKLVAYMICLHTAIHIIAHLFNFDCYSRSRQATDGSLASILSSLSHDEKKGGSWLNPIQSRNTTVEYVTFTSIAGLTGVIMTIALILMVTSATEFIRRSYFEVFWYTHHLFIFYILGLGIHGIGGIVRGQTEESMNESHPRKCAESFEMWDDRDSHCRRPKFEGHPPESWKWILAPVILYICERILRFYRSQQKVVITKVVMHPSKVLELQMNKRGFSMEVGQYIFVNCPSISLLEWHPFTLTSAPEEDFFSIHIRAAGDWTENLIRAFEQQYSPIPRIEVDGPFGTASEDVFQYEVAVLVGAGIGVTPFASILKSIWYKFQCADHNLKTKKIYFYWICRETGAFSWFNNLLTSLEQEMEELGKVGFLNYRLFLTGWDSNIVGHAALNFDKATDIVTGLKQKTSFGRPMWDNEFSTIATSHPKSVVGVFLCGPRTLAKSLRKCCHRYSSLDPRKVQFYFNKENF
The class given is functional, cell-based.

Test [6] concerns the target DNA dC->dU-editing enzyme APOBEC-3A (Homo sapiens, UniProt P31941). As to the kind of experiment: Dose Response confirmation of small molecule APOBEC3A DNA Deaminase Inhibitors via a fluorescence-based single-stranded DNA deaminase assay. [Related pubchem assays (depositor defined):AID493011, AID493024]. The class given is functional.
For test [7], the target named is DNA dC->dU-editing enzyme APOBEC-3G (Homo sapiens, UniProt Q9HC16). The class given is functional.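 Note: Dose-response counterscreen measuring inhibition of APOBEC3G DNA deaminase activity, run while confirming APOBEC3A inhibitors.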
DNA dC->dU-editing enzyme APOBEC-3G, sequence (Q9HC16 whole entry): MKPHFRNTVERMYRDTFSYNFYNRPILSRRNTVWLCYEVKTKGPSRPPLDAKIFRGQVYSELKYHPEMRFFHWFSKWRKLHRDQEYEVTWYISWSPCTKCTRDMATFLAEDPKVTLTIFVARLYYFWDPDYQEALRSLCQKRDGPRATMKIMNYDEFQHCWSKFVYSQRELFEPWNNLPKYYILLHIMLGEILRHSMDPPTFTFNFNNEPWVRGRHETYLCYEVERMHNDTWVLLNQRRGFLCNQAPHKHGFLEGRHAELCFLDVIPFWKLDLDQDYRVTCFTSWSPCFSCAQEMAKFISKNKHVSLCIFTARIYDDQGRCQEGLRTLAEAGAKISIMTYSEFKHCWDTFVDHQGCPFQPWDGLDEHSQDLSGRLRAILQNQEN
For test [8], the target named is T4, Rac GTPase-activating protein 1 (Homo sapiens, UniProt Q9H0H5).
T4 sequence (Q9H0H5 whole entry): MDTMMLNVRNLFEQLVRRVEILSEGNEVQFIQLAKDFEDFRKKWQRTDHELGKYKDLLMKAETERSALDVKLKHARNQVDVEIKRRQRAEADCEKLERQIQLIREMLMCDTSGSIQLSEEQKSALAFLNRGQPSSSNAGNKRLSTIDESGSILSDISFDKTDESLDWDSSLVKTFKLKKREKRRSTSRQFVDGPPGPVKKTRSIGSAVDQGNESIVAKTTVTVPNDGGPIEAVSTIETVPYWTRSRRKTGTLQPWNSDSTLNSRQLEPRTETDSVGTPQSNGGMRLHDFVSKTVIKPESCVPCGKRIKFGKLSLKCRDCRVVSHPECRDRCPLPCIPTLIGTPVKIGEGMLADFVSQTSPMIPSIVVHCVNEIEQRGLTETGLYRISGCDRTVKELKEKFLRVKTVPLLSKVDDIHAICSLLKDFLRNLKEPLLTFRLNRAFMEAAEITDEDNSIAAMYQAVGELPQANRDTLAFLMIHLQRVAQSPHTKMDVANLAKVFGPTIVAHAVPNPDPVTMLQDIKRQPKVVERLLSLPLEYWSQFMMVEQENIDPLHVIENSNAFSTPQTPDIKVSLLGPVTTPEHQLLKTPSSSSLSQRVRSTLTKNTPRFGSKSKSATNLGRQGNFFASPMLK
As to the kind of experiment: blockers of MgcRacGAP-driven Rac1 GTP hydrolysis – biochemical, ADP Hunter fluorescence, primary and confirmatory, confirmation (AID 624330). The class given is functional.

Test [9] in a line: viability loss in HeLa cells – cytotoxicity control for MgcRacGAP inhibitor project, dose response (AID 624300). The format is functional.
The target of test [10] is FAD-linked sulfhydryl oxidase ALR (Homo sapiens, UniProt P55789). As to the kind of experiment: ALR-catalysed DTT oxidation blockers – biochemical, H2O2 detection, luminescence, cherry-pick, dose response (AID 493248).
FAD-linked sulfhydryl oxidase ALR, sequence (P55789 whole entry): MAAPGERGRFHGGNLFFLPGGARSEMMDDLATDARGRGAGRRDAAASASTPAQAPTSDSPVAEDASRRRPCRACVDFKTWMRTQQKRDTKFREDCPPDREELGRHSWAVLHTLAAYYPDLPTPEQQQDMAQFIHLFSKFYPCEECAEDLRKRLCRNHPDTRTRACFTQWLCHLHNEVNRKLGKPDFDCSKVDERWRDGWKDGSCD
The nature of test [11]: viability of uninfected HEp-2 cells – cell-based, HTS, cytotoxicity control for RSV inhibitor project, dose response (AID 2410). The class given is functional. To be noted: human respiratory syncytial virus.
Test [12] is described as follows: toxicity to human hepatoma HepG2 cells – cell-based, cherry-picked samples, cytotoxicity control, dose response (AID 1159577). The format is functional.
A short description of test [13]: P. falciparum Dd2 growth inhibitors, dose response, SYBR Green, cherry-picked samples (AID 1159567). The class given is functional, cell-based.
Test [14] in a line: Dd2 malaria parasite growth inhibition potency – SYBR Green, dry powder samples, dose response (AID 1159566).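 Note: potency for growth inhibition with lower SYBR green DNA signal.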 The format is functional, cell-based.
Test [15] in a line: growth inhibition of yeast DHODH-expressing 3D7 parasites – SYBR Green, dry powder samples, dose response (AID 1159570).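 Note: parasite growth measured after 72 hours of compound exposure.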 The format is functional, cell-based.
Test [16] can be described thus: toxicity to human HepG2 hepatoma cells – cell-based, plate reader, dry powder samples, cytotoxicity control, dose response (AID 1159569).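 Note: inhibitor potency with signal falling toward the positive control level.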 The class given is functional.
The nature of test [17]: growth inhibition of PfATP4-mutant resistant parasites – NITD609-resistant line, SYBR Green, dry powder, dose response (AID 1159571).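 Note: parasites synchronized at ring stage by sorbitol before testing.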 The format is functional, cell-based.

Where a name gives a salt, the structure may show the parent alone. The source made the active and inactive calls.

DNA dC->dU-editing enzyme APOBEC-3A, sequence (P31941 whole entry): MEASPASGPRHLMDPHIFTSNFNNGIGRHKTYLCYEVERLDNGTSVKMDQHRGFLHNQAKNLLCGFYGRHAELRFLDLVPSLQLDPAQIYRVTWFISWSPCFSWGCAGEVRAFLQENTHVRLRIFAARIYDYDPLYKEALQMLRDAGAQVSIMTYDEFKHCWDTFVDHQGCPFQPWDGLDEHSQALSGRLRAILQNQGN

With `NC(=O)c1ccccc1NC(=O)/C=C/c1ccc(Cl)cc1`, the cytotoxic concentration (CC50) in [1] was > 40 µM (active).
For the molecule `COc1ccc(C2CC(c3c(O)nc4ccc(Cl)cc4c3-c3ccccc3)=NN2S(C)(=O)=O)cc1OC` (configuration not stated), the IC50 on Estrogen receptor is 12.4 µM (active).
For `COc1cc2ccccc2cc1C(=O)Nc1ccc(C)cc1`, the EC50 in “cells [2]” was 29.2 µM (active); in “cells [3]” it was > 350 µM (not active); in [4], 0.394 µM (active).
For `O=C(Nc1nc2ccccc2s1)c1ccc(N2CCCCC2)c([N+](=O)[O-])c1`, the concentration for half-maximal inhibition (IC50) in test [5] was 1.12 µM (active).
As for `Fc1ccc2c(c1)Sc1ccccc1N2`, on NADPH oxidase 1, the IC50 is 0.24 µM (active).
Take `O=C(NCCC1CCCCN1S(=O)(=O)c1ccc(F)cc1)C(=O)NCc1ccccn1` (configuration not stated): the CC50 in test [1] was > 40 µM (active).
Take `C#CCn1cc(/C=N/NC(=O)COc2cccc3cccnc23)c2ccccc21`: the IC50 in test [6] and in test [7] was > 100 µM (inactive) each time. The concentration for a half-maximal effect (EC50) in test [4] is > 0.377 µM (active).
Turning to `O=S(=O)(/N=C(\Sc1ccc(Cl)cc1)c1ccccc1)c1ccccc1`, the IC50 on Estrogen receptor was > 50 µM (not active).
Turning to `COc1ccc(/C=N/Nc2nc3ccccc3[nH]2)cc1OC`, in test [8], the IC50 was 74 µM (active). For the same molecule, the values for the CC50 in test [9] and in test [11] were 100 µM (active) and 20.8 µM (active), respectively. In addition, the AC50 in test [10] is 0.285 µM (active). Also, in test [4], the half-maximal effective concentration (EC50) was 3.46 µM (active).
`CN(C)CC(=O)N[C@@H]1C[C@@H]2O[C@@H](CO)CC[C@@H]2O[C@@H]1CCc1ccc(C2=CCCCC2)cc1`: the concentration at half-maximal activity (AC50) in test [12] was 27.7 µM (active); in test [13] it was 6.13 µM (active).
`C[C@@H]1CN([C@H](C)CO)C(=O)c2cc(C#Cc3ccccc3)cnc2O[C@H]1CN(C)C(=O)CCN1CCCCC1`: the AC50 in [12] was 35.6 µM (active); in test [14], 1.49 µM (active); in [15], 2.34 µM (active); in [16] it was 22.9 µM (active); in test [17], 1.79 µM (active); in [13], 2.23 µM (active).
With `CN(C)CCCN1c2ccccc2Sc2ccccc21` [PROMAZINE HYDROCHLORIDE], the IC50 against NADPH oxidase 1 is listed as > 17 µM (not active). In addition, the half-maximal activity concentration (AC50) in test [10] is 1.28 µM (active).

One may read the CC50 as the concentration at which the toxic effect on the cells reaches its halfway point. A word on the IC50: it is the concentration at which inhibition is half-maximal. The term EC50 denotes the concentration needed to bring the measured effect to its halfway point. What is called AC50 is the concentration at which the activity in the assay is half-maximal.
